Measured values as given in paper PMC3556730 (Neuropharmacology, 2011).
Like-named read-outs stand apart in the source and are kept apart here.

How the values were obtained:
5-HT2AR [1] = target: 5-HT2AR (Mus musculus, UniProt P35363); test: [3H]Ketanserin competition binding, mouse striatum membranes
5-HT2AR [2] = target: T1, 5-HT2AR (Homo sapiens, UniProt P28223); details: HEK-5HT2AR
5-HT2AR [3] = target: T1, 5-HT2AR
5-HT2AR [4] = target: T1, 5-HT2AR; details: HEK-5HT2AR; vehicle; mean ± SEM
5-HT2AR [5] = target: T1, 5-HT2AR; details: for Emax (inositol phosphate production): HEK-5HT2AR-D2R, mean ± SEM; for Effect on 5-HT-induced 5-HT2AR-IP3 production / Effect on DOI-induced 5-HT2AR-IP3 production: co-expressing cells, D2R agonist 10^−5 M
[6] = system: MK-801-induced locomotor activity; test: MK-801-induced locomotor activity in wild-type and 5-HT2AR-KO mice; assay type: in vivo; details: MK-801 0.5 mg/kg i.p.; wild-type and 5-HT2AR-KO mice (similar)
[7] = mouse striatum, with quinpirole (10^−5 M)

T1 sequence (P28223 whole entry): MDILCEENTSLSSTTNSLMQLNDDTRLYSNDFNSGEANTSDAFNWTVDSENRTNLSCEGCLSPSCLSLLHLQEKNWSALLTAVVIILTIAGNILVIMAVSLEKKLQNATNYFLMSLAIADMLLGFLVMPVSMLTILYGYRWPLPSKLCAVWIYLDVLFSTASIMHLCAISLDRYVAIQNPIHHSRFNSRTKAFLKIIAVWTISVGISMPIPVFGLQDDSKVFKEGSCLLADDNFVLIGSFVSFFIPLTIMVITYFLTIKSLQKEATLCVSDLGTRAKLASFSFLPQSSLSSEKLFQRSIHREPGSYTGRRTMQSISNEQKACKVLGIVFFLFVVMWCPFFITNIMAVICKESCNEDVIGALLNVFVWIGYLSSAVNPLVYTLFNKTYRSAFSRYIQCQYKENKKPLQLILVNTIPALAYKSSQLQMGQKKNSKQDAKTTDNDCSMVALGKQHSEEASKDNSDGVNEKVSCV
Chain of 5-HT2AR (Mus musculus, UniProt P35363) (P35363 whole entry): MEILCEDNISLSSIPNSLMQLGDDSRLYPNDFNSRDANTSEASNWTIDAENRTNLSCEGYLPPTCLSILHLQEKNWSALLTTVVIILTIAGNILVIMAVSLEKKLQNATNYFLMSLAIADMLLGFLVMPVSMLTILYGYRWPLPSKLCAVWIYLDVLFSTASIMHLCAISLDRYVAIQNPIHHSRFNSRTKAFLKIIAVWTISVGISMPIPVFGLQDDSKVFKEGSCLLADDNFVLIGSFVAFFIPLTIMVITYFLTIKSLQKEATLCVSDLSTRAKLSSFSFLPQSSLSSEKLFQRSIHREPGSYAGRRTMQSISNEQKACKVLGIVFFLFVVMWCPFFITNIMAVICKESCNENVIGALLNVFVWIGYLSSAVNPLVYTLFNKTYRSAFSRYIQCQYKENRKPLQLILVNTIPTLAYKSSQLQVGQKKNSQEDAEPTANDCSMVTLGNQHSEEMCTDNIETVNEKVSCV

## COc1cc(CC(C)N)c(OC)cc1I (racemic) [DOI, (+/−)-2,5-dimethoxy-4-iodoamphetamine]
5-HT2AR [1]; Fig. 1C single experiment, control, one-site model
  Ki: 95 nM
5-HT2AR [1]; Fig. 1D single experiment, control, one-site model
  Ki: 3300 nM
5-HT2AR [1]; [7]
  % High (percentage of high-affinity binding sites): 44 ± 2%
5-HT2AR [1]; read-out: Ki-high, mouse striatum, with quinpirole (10^−5 M), two-site model, mean ± SEM
  Ki: 0.065 nM
5-HT2AR [1]; read-out: Ki-low, mouse striatum, vehicle, one-site model, mean ± SEM
  Ki: 250 nM
5-HT2AR [1]; read-out: Ki-low, mouse striatum, with quinpirole (10^−5 M) + raclopride (10^−6 M), one-site model, mean ± SEM
  Ki: 690 nM
5-HT2AR [1]; read-out: Ki-low, mouse striatum, with quinpirole (10^−5 M), two-site model, mean ± SEM
  Ki: 510 nM
5-HT2AR [1]; read-out: Ki-low, mouse striatum, with raclopride (10^−6 M), one-site model, mean ± SEM
  Ki: 660 nM
5-HT2AR [2]; vehicle
  % High (percentage of high-affinity binding sites): 41 ± 5%
5-HT2AR [2]; with quinpirole (10^−5 M)
  % High (percentage of high-affinity binding sites): 48%
5-HT2AR [3]; HEK-5HT2AR-D2R, with quinpirole (10^−5 M)
  % High (percentage of high-affinity binding sites): 46 ± 3%

## NCCc1c[nH]c2ccc(O)cc12 [5-HT, serotonin]
5-HT2AR [4]
  Emax (inositol phosphate production): 647 ± 74 cpm
5-HT2AR [5]; vehicle
  Emax (inositol phosphate production): 608 ± 12 cpm
5-HT2AR [5]; with quinpirole (10^−5 M)
  Emax (inositol phosphate production): 589 ± 22 cpm
5-HT2AR [5]; with ropinirole (10^−5 M)
  Emax (inositol phosphate production): 564 ± 47 cpm

## C[C@]12N[C@H](Cc3ccccc31)c1ccccc12 [MK-801, dizocilpine]
[6]
  Locomotor activity: increased locomotor activity

## CCCN1CCC[C@@H]2Cc3n[nH]cc3C[C@H]21 [quinpirole]
5-HT2AR [1]; mouse striatum, modulator 10^−5 M
  Effect on affinity of DOI for 5-HT2AR: significantly higher
5-HT2AR [5]
  Effect on 5-HT-induced 5-HT2AR-IP3 production: have no effect
  Effect on DOI-induced 5-HT2AR-IP3 production: decrease
5-HT2AR [3]; HEK293 co-expressing 5-HT2AR and D2R, modulator 10^−5 M
  Effect on affinity of DOI for 5-HT2AR: marked increase

## CCN1CCC[C@H]1CNC(=O)c1c(O)c(Cl)cc(Cl)c1OC [raclopride]
5-HT2AR [1]; [7]
  Effect on quinpirole-enhanced DOI affinity for 5-HT2AR: prevents the enhanced effect

## CCCN(CCC)CCc1cccc2c1CC(=O)N2 [ropinirole]
5-HT2AR [5]
  Effect on 5-HT-induced 5-HT2AR-IP3 production: have no effect
  Effect on DOI-induced 5-HT2AR-IP3 production: decrease
